Source: patent US5567676A, “Glycopeptide antibiotics” (Gruppo Lepetit S.p.A, priority 1986, dated 1996)

Assays:
[1] = system: Staph. epidermidis L147 ATCC 12228 (coagulase negative); conditions: Isosensitest broth, 24 h, 37° C.
[2] = system: Staph. haemolyticus L602 (clinical isolate); assay: MIC, broth dilution test; assay type: cell-based; conditions: Isosensitest broth, 24 h, 37° C.
[3] = system: Klebsiella pneumoniae L142; assay: MIC, broth dilution test; assay type: cell-based; conditions: Isosensitest broth, 24 h, 37° C.
[4] = system: Haemophilus influenzae L 970 type b ATCC 19418; assay: MIC, broth dilution test; assay type: cell-based; conditions: Brain Heart broth +1% Supplement C, 48 h, 37° C.
[5] = system: Neisseria gonorrhoeae L997 ISM68/126; assay: MIC, broth dilution test; assay type: cell-based; conditions: GC base broth +1% Isovitalex, 48 h, CO2-enriched atmosphere, 37° C.
[6] = system: Proteus vulgaris L79 X19H ATCC881; assay: MIC, broth dilution test; assay type: cell-based; conditions: Isosensitest broth, 24 h, 37° C.
[7] = system: Strep. pneumoniae L44 UC41; assay: MIC, broth dilution test; assay type: cell-based; conditions: Todd-Hewitt broth, 24 h, 37° C.
[8] = system: Pseudomonas aeruginosa L4 ATCC10145; assay: MIC, broth dilution test; assay type: cell-based; conditions: Isosensitest broth, 24 h, 37° C.
[9] = system: Strep. mitis L796 (clinical isolate); assay: MIC, broth dilution test; assay type: cell-based; conditions: Todd-Hewitt broth, 24 h, 37° C.
[10] = system: Ureaplasma urealyticum L1479 (clinical isolate); assay: MIC, broth dilution test; assay type: cell-based; conditions: PPLO broth with supplements, 24 h, about 10^4 color-changing units/ml, 37° C.
[11] = system: Strep. pyogenes L49 C203; assay: MIC, broth dilution test; assay type: cell-based; conditions: Todd-Hewitt broth, 24 h, 37° C.
[12] = system: Staph. aureus L165; assay: MIC, broth dilution test; assay type: cell-based; conditions: Isosensitest broth, 24 h
[13] = system: Clostridium perfringens L290 ISS 30543; conditions: AC broth, 24 h, anaerobic atmosphere, 37° C.
[14] = system: S. pyogenes C 203 (L 49); assay: Experimental septicemia in the mice; assay type: in vivo, CD-1 mice; conditions: mice infected i.p. with S. pyogenes C 203 (L 49); compound s.c. immediately after infection; survival on the 7th day, Spearman and Karber
Procedure: The antimicrobial activity of the compounds of the invention is confirmed also in experimental septicemia in the mice. Control and treatment groups may include ten CD-1 mice (Charles River) weighing 18-22 g. They are infected intraperitoneally with 0.5 ml of bacterial suspension prepared by diluting an overnight culture of S. pyogenes C 203 (L 49) with sterile peptonized saline. Inocula are adjusted so that untreated animals die of septicemia within 48 h. The compounds to be tested are administered subcutaneously immediately after infection. On the 7th day, the ED50 in mg/kg is calculated by the method of Spearman and Karber (D. J. Finney "Statistical Methods in Biological Assay" Griffin, page 524, 1952) from the percentage of surviving animals at each dose.

[15] = system: Strep. faecalis L149 ATCC 7080; assay: MIC, broth dilution test; assay type: cell-based; conditions: Isosensitest broth, 24 h, 37° C.
[16] = system: different microorganism cultures; assay: In vitro antibacterial activity, standard dilution tests (microorganisms of Table I); assay type: cell-based

In the case of de-acyl antibiotic A 40926, the M.I.C. [1] is reported as 2 µg/mL, the M.I.C. [2] is reported as 32 µg/mL and the M.I.C. [3] is reported as greater than 128 µg/mL. For the same substance, the M.I.C. [4] was 128 µg/mL, the M.I.C. [5] was 64 µg/mL and the M.I.C. [6] was greater than 128 µg/mL. It also gave a M.I.C. [7] of 0.25 µg/mL, a M.I.C. [8] greater than 128 µg/mL and a M.I.C. [9] of 0.5 µg/mL. For the same substance, the M.I.C. [10] was greater than 128 µg/mL, the M.I.C. [11] was 0.25 µg/mL and the M.I.C. ([12]; Staph. aureus (10^6 cfu/ml)) was 2 µg/mL. For the same substance, the M.I.C. ([12]; Staph. aureus (30% bovine serum)) was 2 µg/mL, the M.I.C. ([12]; Staph. aureus L165, 37° C., about 10^4-10^5 cfu/ml) was 1 µg/mL and the M.I.C. [13] was 0.13 µg/mL. The ED50 [14] was 2.33 mg/kg and the M.I.C. [15] was 2 µg/mL.
With “antibiotic A 40926 aminoglucuronyl aglycon” the “level of antimicrobial activity compared with de-acyl antibiotic A 40926 (Table I)” value [16] was “substantially the same level of antimicrobial activity as that reported above for de-acyl antibiotic A 40926”.
de-acyl antibiotic A 40926 P was tested, and the “level of antimicrobial activity compared with de-acyl antibiotic A 40926 (Table I)” value [16] was “substantially the same level of antimicrobial activity as that reported above for de-acyl antibiotic A 40926”.
